Data reported in patent publication US20240336566A1, “CRYSTALLINE FORMS OF A COMPOUND FOR THE TARGETED DEGRADATION OF THE ANDROGEN RECEPTOR” (Arvinas Operations, Inc., priority 2023, published 2024).
Where two headings read alike, the source gives them in different places. Each block holds one compound with its values, some of them ahead of it.

Assays:
Format in all cases: physicochemical
[1] = Primary salt screen: XRPD post temperature cycling/evaporation, post drying and post storage at 40° C./75% RH
Procedure: • 30 mg samples of Compound A were weighed out into 2 mL screw cap sample vials for 96 experiments. To these, 200 μL of the appropriate solvent system was added to dissolve the material or form a slurry. See Table 16 for the solvent systems selected for the primary salt screen.
• 1.05 eq. of solid counterions were weighed into six separate vials each and 1 molar stock solutions were prepared for liquid counterions in 5 mL of THF. See Table 17 for selected counterions and mass/volume needed for 1.05 eq. additions. • 100 μL of the appropriate solvent was added to the solid counterions.
The solution/slurry of counterion was added to the solution/slurry of the free base material.
• The samples were placed in an incubator shaker to temperature cycle between ambient and 40° C. over 4 hour cycles. • After ca. 72 hours of temperature cycling, observations were noted, see Table 19.
• Where slurries were obtained, the solids were isolated via centrifugation. Solids and gels were analyzed by XRPD.
Any samples that were clear solutions after temperature cycling were left to evaporate at ambient conditions. See Table 20 for observations made after evaporation. Solids obtained through evaporation were analyzed by XRPD.
• The samples obtained from temperature cycling were dried under vacuum at 40° C. for ca. 20 hours while the samples obtained from evaporation were dried under vacuum at 40° C. for ca. 4 hours. […]

[2] = 7-day stability assessment (appearance, HPLC, XRPD); conditions: for Reported Purity / Total impurities: HPLC
Procedure: The material was gently ground to release any agglomerates and loaded onto a multi-well plate with Kapton or Mylar polymer film to support the sample. […] Data were visualized and images generated using the HighScore Plus 4.7 desktop application (PANalytical, 2θ17).
They all remained white or off-white solids. • XRPD analysis determined the patterns were retained.

[3] = Primary crystallization screen: XRPD before and after drying at 40° C.; conditions: dried at 40° C. for approximately 18 h
Procedure: • 34×40 mg of Compound A was weighed into vials before the selected solvents were added to prepare slurries, where possible. See Table 29 for a list of solvent systems used and the volume of solvent used. • Stirrer bars were added to the vials, before the vials were sealed and temperature cycled with stirring between 5° C. and 40° C. The heating rate was 0.1° C./min and the samples were held at 5° C. and 40° C. for 2 hours. • After temperature cycling for 4 days, observations were made (see Table 29). Slurries were centrifuge filtered and the solids were analyzed by XRPD • The solids were dried at 40° C. for approximately 18 h before being re-analyzed by XRPD. • Saturated solutions were then split into 3 vials for the following experiments • Evaporation at ambient temperature • Cooling (5° C.). • Where no solids were obtained after 72 hours, the samples were moved to the freezer at −20° C. for further cooling. • Where no solids were obtained from further cooling, the samples were allowed to evaporate at ambient temperature. • Anti-solvent addition at ambient temperature. • Where no solids were obtained after 72 hours the samples were moved to the freezer at −20° C. to encourage crystallization. • Where no solids were obtained from cooling, the samples were allowed to evaporate at ambient temperature.

[4] = Compound A + 1.05 eq. counterion (= label), DCM
[5] = Compound A + 1.05 eq. counterion (= label), DCM, dried under vacuum at 40° C.
[6] = Compound A + 1.05 eq. counterion (= label), DCM, stored ca. 20 hours
[7] = Compound A + 1.05 eq. counterion (= label), DMSO:Water (50:50 % v/v)
[8] = 7 days at 40° C./75% RH (open vial)
[9] = 7 days at Ambient light (closed vial)
[10] = input material before storage (baseline of the stability assessment)
[11] = Compound A + 1.05 eq. counterion (= label), THF
[12] = Compound A + 1.05 eq. counterion (= label), THF, dried under vacuum at 40° C.
[13] = Compound A + 1.05 eq. counterion (= label), THF, stored ca. 20 hours
[14] = Compound A + 1.05 eq. counterion (= label), 1,4-Dioxane
[15] = Compound A + 1.05 eq. counterion (= label), 1,4-Dioxane, dried under vacuum at 40° C.
[16] = Compound A + 1.05 eq. counterion (= label), 1,4-Dioxane, stored ca. 20 hours
[17] = Compound A + 1.05 eq. counterion (= label), DCM:Methanol (50:50 % v/v)
[18] = Compound A + 1.05 eq. counterion (= label), DCM:Methanol (50:50 % v/v), dried under vacuum at 40° C.
[19] = Compound A + 1.05 eq. counterion (= label), DCM:Methanol (50:50 % v/v), stored ca. 20 hours
[20] = Compound A + 1.05 eq. counterion (= label), THF:Water (98:2 % v/v)
[21] = Compound A + 1.05 eq. counterion (= label), THF:Water (98:2 % v/v), dried under vacuum at 40° C.
[22] = Compound A + 1.05 eq. counterion (= label), THF:Water (98:2 % v/v), stored ca. 20 hours

Structure (SMILES): O=S(=O)(O)O [Sulfuric acid]
XRPD results post 40° C./75% RH [1]: A t and A e
XRPD results post drying [1]: A t and A e
XRPD results post temperature cycling and evaporation [1]: A t and A e

Structure (SMILES): COc1cc(O[C@H]2C(C)(C)[C@H](NC(=O)c3ccc(N4CCC(CN5CCN(c6ccc(C(=O)N[C@H]7CCC(=O)NC7=O)c(F)c6)CC5)CC4)cc3)C2(C)C)ccc1C#N [free base Pattern 2]
HPLC purity [2, 8]: 98.37 % relative area
XRPD after stability storage [2, 8]: No change
HPLC purity ([2]; 7 days at 80° C. (closed vial)): 98.33 % relative area
XRPD after stability storage ([2]; 7 days at 80° C. (closed vial)): No change
HPLC purity [2, 9]: 98.27 % relative area
XRPD after stability storage [2, 9]: No change
Reported Purity ([2]; after 7 days at 40° C./75% RH): 98.37 Area %
Total impurities ([2]; after 7 days at 40° C./75% RH): 1.63 Area %
Reported Purity ([2]; after 7 days at 80° C.): 98.33 Area %
Total impurities ([2]; after 7 days at 80° C.): 1.67 Area %
Reported Purity ([2]; after 7 days at ambient): 98.27 Area %
Total impurities ([2]; after 7 days at ambient): 1.73 Area %
Reported Purity [2, 10]: 98.39 Area %
Total impurities [2, 10]: 1.61 Area %
purity retained after stability storage (HPLC) ([2]; after 7 days at 40° C./75% RH (open vial), 80° C. (closed vial), ambient light (closed vial)): > 98 % relative area
HPLC purity ([2]; before stability testing (condition N/A)): 98.39 % relative area

Structure (SMILES): O=C(O)C[C@H](O)C(=O)O [l-Malic acid]
XRPD results post temperature cycling and evaporation [1, 4]: A e
XRPD results post drying [1, 5]: A e
XRPD results post 40° C./75% RH [1, 6]: A e
XRPD results post temperature cycling and evaporation [1, 7]: A t
XRPD results post temperature cycling and evaporation [1, 11]: A e
XRPD results post drying [1, 12]: A e
XRPD results post 40° C./75% RH [1, 13]: A e

Structure (SMILES): O=C(O)C(O)C(O)C(=O)O (stereo not drawn) [l-Tartaric acid]
XRPD results post temperature cycling and evaporation [1, 14]: A t
XRPD results post drying [1, 15]: A t
XRPD results post 40° C./75% RH [1, 16]: A t
XRPD results post temperature cycling and evaporation [1, 4]: A e
XRPD results post temperature cycling and evaporation [1, 17]: A e
XRPD results post drying [1, 18]: A e
XRPD results post 40° C./75% RH [1, 19]: A e
XRPD results post drying [1, 5]: A e
XRPD results post 40° C./75% RH [1, 6]: A e
XRPD results post temperature cycling and evaporation [1, 7]: A t
XRPD results post temperature cycling and evaporation [1, 11]: A e
XRPD results post temperature cycling and evaporation [1, 20]: A e
XRPD results post drying [1, 21]: A e
XRPD results post 40° C./75% RH [1, 22]: A e
XRPD results post drying [1, 12]: A e
XRPD results post 40° C./75% RH [1, 13]: A e

Other lines, results leading:

XRPD results post temperature cycling and evaporation [1, 4]: C e
XRPD results post drying [1, 5]: A e d
XRPD results post 40° C./75% RH [1, 6]: C e h
XRPD results post temperature cycling and evaporation [1, 7]: A t
Structure (SMILES): O=C(O)CCC(=O)O [Succinic acid]

XRPD form upon drying [3]: converted to Pattern 8
Structure (SMILES): COc1cc(O[C@H]2C(C)(C)[C@H](NC(=O)c3ccc(N4CCC(CN5CCN(c6ccc(C(=O)N[C@H]7CCC(=O)NC7=O)c(F)c6)CC5)CC4)cc3)C2(C)C)ccc1C#N [free base Pattern 5]

XRPD results post temperature cycling and evaporation [1, 4]: C e
XRPD results post drying [1, 5]: C e
XRPD results post 40° C./75% RH [1, 6]: C e
XRPD results post temperature cycling and evaporation [1, 7]: A t
Structure (SMILES): N[C@@H](CCC(=O)O)C(=O)O [l-Glutamic]

XRPD results post temperature cycling and evaporation [1, 14]: A t
XRPD results post drying [1, 15]: A t
XRPD results post 40° C./75% RH [1, 16]: A t
XRPD results post temperature cycling and evaporation [1, 4]: A e
XRPD results post temperature cycling and evaporation [1, 17]: A e
XRPD results post drying [1, 18]: A e
XRPD results post 40° C./75% RH [1, 19]: A e
XRPD results post drying [1, 5]: A e
XRPD results post 40° C./75% RH [1, 6]: A e
XRPD results post temperature cycling and evaporation [1, 7]: A t
XRPD results post drying ([1]; Compound A + 1.05 eq. counterion (= label), DMSO:Water (50:50 % v/v), dried under vacuum at 40° C.): A t
XRPD results post 40° C./75% RH ([1]; Compound A + 1.05 eq. counterion (= label), DMSO:Water (50:50 % v/v), stored ca. 20 hours): A t
XRPD results post temperature cycling and evaporation [1, 11]: S t
XRPD results post temperature cycling and evaporation [1, 20]: A e
XRPD results post drying [1, 21]: A e
XRPD results post 40° C./75% RH [1, 22]: A e
Structure (SMILES): Cc1ccc(S(=O)(=O)O)cc1 [p-Toluenesulfonic acid]
